Like-named read-outs stand apart in the source and are kept apart here.

The subject of data set [1] is D. melanogaster w^1118 females. The method, then:
(§1) All experiments were conducted with D. melanogaster w^1118 females (Bloomington Drosophila Stock Center) kept at consistent conditions at 25° C., 55% humidity, and ambient light. […] Flies were transferred to new vials every other day. […] These solutions were prepared fresh before each batch of media preparation and were added to warmed, liquefied standard fly food (prepared with agar, cornmeal, sucrose and yeast) and mixed thoroughly prior to pouring into vials. Food was prepared fresh at least monthly.
Flies were followed according to the same protocol, counting dead flies daily until all were dead. Survival data were plotted using Kaplan Meier survival analysis^17, mean and median survival times were calculated, and the differences between the survival curves were tested using log rank statistics in SPSS.

Data set [2] has as its system D. melanogaster w^1118 females. The note with it: in vivo. The method, then: as §1
For data set [3] the following is noted: in vivo; cited from earlier work.
A further data set relates to CG14691. The format is in vivo, D. melanogaster. The note with it: 5 mM paraquat for six days, compared to untreated flies. The method, then: as §1
Where [4] appears, read: 5 mM paraquat, nicotine 0 mg/ml.

In the case of `CN1CCC[C@H]1c1cccnc1` [nicotine, 1-methyl-2-(3-pyridyl)pyrrolidone], in data set [1] (in vivo), the “Nicotine restored survival of paraquat-treated flies” value is reported as no more than 25%, the effect on survival entry is “beneficial effect” and the “improvement of survival of paraquat-treated flies” value is listed as “up to 25%”. Moreover, in data set [2], the effect on survival result is “did not have a notable effect on survival”. Moreover, in data set [3], the Oral bioavailability result was “about 30%”.
With `C[n+]1ccc(-c2cc[n+](C)cc2)cc1` [paraquat, Methyl viologen dichloride hydrate], the shortening of lifespan in data set [1] (5 mM paraquat vs untreated flies) is on record as 63%. Besides, in data set [1] (setting [4]), the “Mean survival Days ± SE” value was found to be 14.0 ± 0.4 days and the “Median survival Days ± SE” value amounted to 16 ± 0.5 days. Moreover, in data set [1] (in vivo), the “Reduction of median survival by paraquat” value is recorded as “Paraquat reduced median survival by 63%”. Further, the “rise in CG14691 expression” value in the data set with CG14691 amounted to 8%.

Source of the values: patent publication US20130324503A1, “Method of identifying and treating a person having a predisposition to or afflicted with Parkinson disease” (Health Research Inc., priority 2010, published 2013).
